Here are results for 28 compounds from patent US9464084B2, “P2X7 modulators” (Janssen Pharmaceutica NV, priority 2013, dated 2016).

In one experiment the target is P2X7 (Homo sapiens (Human), UniProt Q99572). The experiment is described as follows: P2X7 antagonism in human PBMCs (LPS + Bz-ATP induced IL-1β release, ELISA).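 Also: PBMCs from donor human blood, with a further 1.5 h incubation of the cells in the assay.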 The experiment is classed as cell-based. As to conditions: compound 1 μM, LPS 30 ng/ml, Bz-ATP 0.5 mM.
P2X7, sequence (Q99572 whole entry): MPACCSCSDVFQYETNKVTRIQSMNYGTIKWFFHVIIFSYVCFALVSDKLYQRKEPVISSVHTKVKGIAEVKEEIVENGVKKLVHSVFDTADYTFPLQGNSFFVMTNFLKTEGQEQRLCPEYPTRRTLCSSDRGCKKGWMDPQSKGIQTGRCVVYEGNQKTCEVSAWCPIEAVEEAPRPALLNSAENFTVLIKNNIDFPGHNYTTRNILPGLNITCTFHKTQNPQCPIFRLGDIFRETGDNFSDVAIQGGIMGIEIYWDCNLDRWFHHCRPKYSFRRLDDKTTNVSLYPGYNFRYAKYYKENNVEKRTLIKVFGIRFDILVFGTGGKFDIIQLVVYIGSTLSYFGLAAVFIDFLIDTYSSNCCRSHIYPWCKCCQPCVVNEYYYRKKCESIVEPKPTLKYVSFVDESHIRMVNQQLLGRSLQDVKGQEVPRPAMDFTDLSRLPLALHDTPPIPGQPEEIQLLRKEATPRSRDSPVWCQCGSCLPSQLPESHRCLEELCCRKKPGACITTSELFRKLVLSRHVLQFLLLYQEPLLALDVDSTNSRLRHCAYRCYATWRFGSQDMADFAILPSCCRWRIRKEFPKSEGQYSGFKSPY
As for `O=C(c1cccc(Cl)c1Cl)N1CCc2c(ncn2-c2ccccc2)C1` [Example 3, (2,3-Dichlorophenyl)(1-phenyl-6,7-dihydro-1H-imidazo[4,5-c]pyridin-5(4H)-yl)methanone], the “PBMC 1 μM (% control)” value was found to be 23.0 % control.

Regarding `CC1c2nnn(-c3cnccn3)c2CCN1C(=O)c1cccc(C(F)(F)F)c1Cl` (stereo not shown) [Example 73, 5-{[2-Chloro-3-(trifluoromethyl)phenyl]carbonyl}-4-methyl-1-pyrazin-2-yl-4,5,6,7-tetrahydro-1H-[1,2,3]triazolo[4,5-c]pyridine], the “PBMC 1 μM (% control)” value is on record as 4.3 % control.

Consider `O=C(c1cccc2c1OCC2)N1CCc2c(ncn2-c2ccccc2)C1` [Example 51, 5-(2,3-Dihydro-1-benzofuran-7-ylcarbonyl)-1-phenyl-4,5,6,7-tetrahydro-1H-imidazo[4,5-c]pyridine], for which the “PBMC 1 μM (% control)” value came out at 97.6 % control.

Take `O=C(c1c(Cl)cccc1Cl)N1CCc2c(-c3ccccc3)n[nH]c2C1` [Example 324, (2,6-dichlorophenyl)(3-phenyl-4,5-dihydro-1H-pyrazolo[3,4-c]pyridin-6(7H)-yl)methanone]: the “PBMC 1 μM (% control)” value was determined as 100.4 % control.

As for `Cn1nc2c(c1-c1ccc(F)cc1)CCN(C(=O)c1cccc(Cl)c1Cl)C2` [Example 326, (2,3-dichlorophenyl)(3-(4-fluorophenyl)-2-methyl-4,5-dihydro-2H-pyrazolo[3,4-c]pyridin-6(7H)-yl)methanone], the “PBMC 1 μM (% control)” value is 92.0 % control.

Take `O=C(c1cccc(C(F)(F)F)c1Cl)N1CCc2ncn(-c3cnccn3)c2C1` [Example 10, (2-Chloro-3-(trifluoromethyl)phenyl)(3-(pyrazin-2-yl)-6,7-dihydro-3H-imidazo[4,5-c]pyridin-5(4H)-yl)methanone]: the “PBMC 1 μM (% control)” value came to 76.5 % control.

As for `O=C(c1cccc(C(F)(F)F)c1Cl)N1CCc2c(ncn2-c2ccccc2)C1CO` (stereo not shown) [Example 30, (5-{[2-Chloro-3-(trifluoromethyl)phenyl]carbonyl}-1-phenyl-4,5,6,7-tetrahydro-1H-imidazo[4,5-c]pyridin-4-yl)methanol], the “PBMC 1 μM (% control)” value is given as 87.0 % control.

As to `O=C(c1cccc(C(F)(F)F)c1Cl)N1CCc2c(ncn2-c2cc(F)cc(F)c2)C1` [Example 7, (2-Chloro-3-(trifluoromethyl)phenyl)(1-(3,5-difluorophenyl)-6,7-dihydro-1H-imidazo[4,5-c]pyridin-5(4H)-yl)methanone], the “PBMC 1 μM (% control)” value was 98.7 % control.

The same experiment, now with this note: compound 10 μM, LPS 30 ng/ml, Bz-ATP 0.5 mM.
Consider `CC1CN(C(=O)c2cccc(C(F)(F)F)c2Cl)C(C)c2nnn(-c3ccccc3)c21` (stereo not shown) [Example 241, (2-Chloro-3-(trifluoromethyl)phenyl)(4,7-dimethyl-1-phenyl-6,7-dihydro-1H-[1,2,3]triazolo[4,5-c]pyridin-5(4H)-yl)methanone], for which the “PBMC 10 μM (% control)” value was determined as 6.5 % control.

For `O=C(c1ccc(Cl)cc1Cl)N1CCc2c(nnn2-c2cnccn2)C1` [Example 277, (2,4-dichlorophenyl)(1-(pyrazin-2-yl)-6,7-dihydro-1H-[1,2,3]triazolo[4,5-c]pyridin-5(4H)-yl)methanone], the “PBMC 10 μM (% control)” value was −3.7 % control.

On to `CC1Cc2c(nnn2-c2cc(F)ccn2)CN1C(=O)c1cccc(Cl)c1Cl` (stereo not shown) [Example 173, 5-[(2,3-Dichlorophenyl)carbonyl]-1-(4-fluoropyridin-2-yl)-6-methyl-4,5,6,7-tetrahydro-1H-[1,2,3]triazolo[4,5-c]pyridine], for which the “PBMC 10 μM (% control)” value worked out at 8.8 % control.

With `C[C@H]1c2ncn(-c3ccc(F)cc3)c2CCN1C(=O)c1cccc(C(F)(F)F)c1Cl` (single isomer, unassigned) [Example 47], the “PBMC 10 μM (% control)” value is recorded as −1.1 % control.

For the compound `C[C@@H]1Cc2c(nnn2-c2ccn[nH]2)[C@@H](C)N1C(=O)c1cccc(C(F)(F)F)c1Cl` [Example 320, (2-chloro-3-(trifluoromethyl)phenyl)((4R,6R)-4,6-dimethyl-1-(1H-pyrazol-5-yl)-6,7-dihydro-1H-[1,2,3]triazolo[4,5-c]pyridin-5(4H)-yl)methanone], the “PBMC 10 μM (% control)” value was −19.7 % control.

On to `Cc1ccc(-n2nnc3c2CCN(C(=O)c2cccc(C(F)(F)F)c2Cl)[C@H]3C)nc1` (single isomer, unassigned) [Example 239, (S*)-(2-chloro-3-(trifluoromethyl)phenyl)(4-methyl-1-(5-methylpyridin-2-yl)-6,7-dihydro-1H-[1,2,3]triazolo[4,5-c]pyridin-5(4H)-yl)methanone], for which the “PBMC 10 μM (% control)” value is 86.9 % control.

For `Cc1cccc(-n2nnc3c2CCN(C(=O)c2cccc(Cl)c2Cl)C3C)n1` (stereo not shown) [Example 233, (2,3-dichlorophenyl)(4-methyl-1-(6-methylpyridin-2-yl)-6,7-dihydro-1H-[1,2,3]triazolo[4,5-c]pyridin-5(4H)-yl)methanone], the “PBMC 10 μM (% control)” value was −0.1 % control.

Consider `C[C@@H]1c2nnn(-c3cc(F)ccn3)c2CCN1C(=O)c1cccc(C(F)(F)F)c1Cl` (single isomer, unassigned) [Example 148, (R*)-(2-Chloro-3-(trifluoromethyl)phenyl)(1-(4-fluoropyridin-2-yl)-4-methyl-6,7-dihydro-1H-[1,2,3]triazolo[4,5-c]pyridin-5(4H)-yl)methanone], for which the “PBMC 10 μM (% control)” value is given as −9.6 % control.

For `CC1Cc2c(nnn2-c2cnccn2)CN1C(=O)c1cccc(C(F)(F)F)c1Cl` (stereo not shown) [Example 209, 5-{[2-Chloro-3-(trifluoromethyl)phenyl]carbonyl}-6-methyl-1-pyrazin-2-yl-4,5,6,7-tetrahydro-1H-[1,2,3]triazolo[4,5-c]pyridine], the “PBMC 10 μM (% control)” value was −1.0 % control.

`C[C@H]1Cc2c(nnn2-c2ncc(F)cn2)CN1C(=O)c1ccnc(C(F)(F)F)c1F` (single isomer, unassigned) [Example 228, (S*)-(3-fluoro-2-(trifluoromethyl)pyridin-4-yl)(1-(5-fluoropyrimidin-2-yl)-6-methyl-6,7-dihydro-1H-[1,2,3]triazolo[4,5-c]pyridin-5(4H)-yl)methanone]: the “PBMC 10 μM (% control)” value is 0.1 % control.

Consider `C[C@H]1c2ncn(-c3ccccn3)c2CCN1C(=O)c1cccc(C(F)(F)F)c1F` (single isomer, unassigned) [Example 43, (4 S*)-5-{[2-Fluoro-3-(trifluoromethyl)phenyl]carbonyl}-4-methyl-1-pyridin-2-yl-4,5,6,7-tetrahydro-1H-imidazo[4,5-c]pyridine], for which the “PBMC 10 μM (% control)” value was 77.8 % control.

Take `CC1Cc2c(nnn2-c2ncccc2F)CN1C(=O)c1cccc(C(F)(F)F)c1Cl` (stereo not shown) [Example 122, 5-{[2-Chloro-3-(trifluoromethyl)phenyl]carbonyl}-1-(3-fluoropyridin-2-yl)-6-methyl-4,5,6,7-tetrahydro-1H-[1,2,3]triazolo[4,5-c]pyridine]: the “PBMC 10 μM (% control)” value worked out at 0.2 % control.

With `CC1Cc2c(nnn2-c2ncc(F)cn2)CN1C(=O)c1cccc(C(F)(F)F)c1F` (stereo not shown) [Example 311, (2-fluoro-3-(trifluoromethyl)phenyl)(1-(5-fluoropyrimidin-2-yl)-6-methyl-6,7-dihydro-1H-[1,2,3]triazolo[4,5-c]pyridin-5(4H)-yl)methanone], the “PBMC 10 μM (% control)” value is recorded as 63.6 % control.

In the case of `CC1Cc2c(nnn2-c2ccc(F)cc2)C(C)N1C(=O)c1cccc(C(F)(F)F)c1Cl` (stereo not shown) [Example 243, (2-Chloro-3-(trifluoromethyl)phenyl)(1-(4-fluorophenyl)-4,6-dimethyl-6,7-dihydro-1H-[1,2,3]triazolo[4,5-c]pyridin-5(4H)-yl)methanone], the “PBMC 10 μM (% control)” value turned out to be 1.0 % control.

Regarding `C[C@H]1Cc2c(nnn2-c2ncc(F)cn2)CN1C(=O)c1cccc(C(F)(F)F)c1F` [Example 220, (6S)-1-(5-Fluoropyrimidin-2-yl)-5-{[2-fluoro-3-(trifluoromethyl)phenyl]carbonyl}-6-methyl-4,5,6,7-tetrahydro-1H-[1,2,3]triazolo[4,5-c]pyridine], the “PBMC 10 μM (% control)” value was found to be 15.1 % control.

For the compound `C[C@H]1c2nnn(-c3ncc(F)cn3)c2CCN1C(=O)c1ccnc(C(F)(F)F)c1F` (single isomer, unassigned) [Example 229, (S*)-(3-fluoro-2-(trifluoromethyl)pyridin-4-yl)(1-(5-fluoropyrimidin-2-yl)-4-methyl-6,7-dihydro-1H-[1,2,3]triazolo[4,5-c]pyridin-5(4H)-yl)methanone], the “PBMC 10 μM (% control)” value was determined as 116.4 % control.

As to `CC1c2nnn(-c3ncc(F)cn3)c2CCN1C(=O)c1cccc(C(F)(F)F)c1Cl` (stereo not shown) [Example 153, (2-Chloro-3-(trifluoromethyl)phenyl)(1-(5-fluoropyrimidin-2-yl)-4-methyl-6,7-dihydro-1H-[1,2,3]triazolo[4,5-c]pyridin-5(4H)-yl)methanone], the “PBMC 10 μM (% control)” value was 28.9 % control.

Regarding `Cc1c(C(=O)N2Cc3nnn(-c4ncc(F)cn4)c3CC2C)cccc1C(F)(F)F` (stereo not shown) [Example 206, 1-(5-Fluoropyrimidin-2-yl)-6-methyl-5-{[2-methyl-3-(trifluoromethyl)phenyl]carbonyl}-4,5,6,7-tetrahydro-1H-[1,2,3]triazolo[4,5-c]pyridine], the “PBMC 10 μM (% control)” value was −1.0 % control.

As to `C[C@H]1Cc2c(nnn2-c2ccc(F)cc2)[C@H](C)N1C(=O)c1cccc(C(F)(F)F)c1Cl` [Example 285, (2-chloro-3-(trifluoromethyl)phenyl)((4S,6S)-1-(4-fluorophenyl)-4,6-dimethyl-6,7-dihydro-1H-[1,2,3]triazolo[4,5-c]pyridin-5(4H)-yl)methanone], the “PBMC 10 μM (% control)” value is on record as −2.6 % control.

For the compound `C[C@H]1c2nnn(-c3cnccn3)c2CCN1C(=O)c1ccc(F)c(Cl)c1Cl` (single isomer, unassigned) [Example 144, (S*)-(2,3-Dichloro-4-fluorophenyl)(4-methyl-1-(pyrazin-2-yl)-6,7-dihydro-1H-[1,2,3]triazolo[4,5-c]pyridin-5(4H)-yl)methanone], the “PBMC 10 μM (% control)” value is 19.6 % control.

For another experiment, the target named is rat P2X7 (Rattus norvegicus (Rat), UniProt Q64663). Description: Ca2+ flux (FLIPR) in 1321N1 cells expressing recombinant rat P2X7 channel.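 Also: Calcium-4 dye fluorescence change read 180 s after agonist addition, following 30 min cell preincubation with test compound.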 Conditions: 250 μM BzATP. Type of experiment: cell-based. For orientation: Calcium assays in cells follow changes in intracellular calcium, usually with a dye or a luminescent sensor.
rat P2X7, sequence (Q64663 whole entry): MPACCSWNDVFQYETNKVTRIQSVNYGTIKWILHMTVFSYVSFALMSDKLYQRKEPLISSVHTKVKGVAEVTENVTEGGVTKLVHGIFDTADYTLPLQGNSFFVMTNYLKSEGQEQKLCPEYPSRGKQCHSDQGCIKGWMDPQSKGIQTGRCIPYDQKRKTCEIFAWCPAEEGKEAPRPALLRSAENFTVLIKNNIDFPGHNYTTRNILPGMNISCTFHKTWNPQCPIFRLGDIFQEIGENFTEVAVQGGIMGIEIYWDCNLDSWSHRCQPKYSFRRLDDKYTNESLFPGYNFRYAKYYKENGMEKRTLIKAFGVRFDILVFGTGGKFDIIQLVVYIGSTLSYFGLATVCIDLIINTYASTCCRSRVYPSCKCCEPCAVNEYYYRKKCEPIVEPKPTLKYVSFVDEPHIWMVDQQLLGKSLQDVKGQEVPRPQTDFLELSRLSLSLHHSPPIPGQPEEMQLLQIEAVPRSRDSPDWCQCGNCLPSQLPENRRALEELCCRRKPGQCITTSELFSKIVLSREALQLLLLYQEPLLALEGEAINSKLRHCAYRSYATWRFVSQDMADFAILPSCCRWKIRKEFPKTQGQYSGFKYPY
Consider `CC1CN(C(=O)c2cccc(C(F)(F)F)c2Cl)C(C)c2nnn(-c3ccccc3)c21` (stereo not shown) [Example 241, (2-Chloro-3-(trifluoromethyl)phenyl)(4,7-dimethyl-1-phenyl-6,7-dihydro-1H-[1,2,3]triazolo[4,5-c]pyridin-5(4H)-yl)methanone], for which the IC50 (usually the concentration that gives 50% inhibition) is above 10000 nM.

On to `O=C(c1ccc(Cl)cc1Cl)N1CCc2c(nnn2-c2cnccn2)C1` [Example 277, (2,4-dichlorophenyl)(1-(pyrazin-2-yl)-6,7-dihydro-1H-[1,2,3]triazolo[4,5-c]pyridin-5(4H)-yl)methanone], for which the IC50 came to 1920 nM.

On to `CC1Cc2c(nnn2-c2cc(F)ccn2)CN1C(=O)c1cccc(Cl)c1Cl` (stereo not shown) [Example 173, 5-[(2,3-Dichlorophenyl)carbonyl]-1-(4-fluoropyridin-2-yl)-6-methyl-4,5,6,7-tetrahydro-1H-[1,2,3]triazolo[4,5-c]pyridine], for which the IC50 was 10.2 nM.
